Non-standard residues stand in square brackets, D forms with d. Residues, ends and D or L forms follow the SMILES beside them. Ac5c = NC1(C(=O)O)CCCC1; Deg = CCC(N)(CC)C(=O)O
Columns and labels:
Assay in all cases: MTT cytotoxicity assay, 48 hours (Example 14)
L132 (Lung) = assay type: cell-based
Procedure: (§1) The cytotoxic effect of peptide sequences SEQ ID NO: 9, SEQ ID NO: 10, SEQ ID NO: 11 and SEQ ID NO: 12, were studied by MTT assay which is based on the principle of uptake of MTT[3-[4,5-dimethylthiazol-2-yl]-2,5-diphenyl tetrazolium bromide], a tetrazolium salt by the metabolically active cells where it is metabolized by active mitochondria into a blue colored formazan product which can be read spectrophotometrically. Tumor cells KB (oral squamous). HuTu80 (Stomach), PTC and SW620 (colon), U87MG (Glioblastoma), HBL 100. (Breast), HeP2 (laryngeal) and L132 (Lung) were incubated with the peptide analogs for 48 hours at 37° C. in a 96-well culture plate, followed by the addition of 100 μl MTT and further incubation of 1 hour. The formazon crystals formed inside the cells were dissolved with a detergent comprising 10% Sodium dodecyl sulfate and 0.01 N HCl and optical density read on a multiscan ELISA reader. The optical density was directly proportional to the number of proliferating and metabolically active cells.

HeP2 (laryngeal) = assay type: cell-based
Procedure: as §1

U87MG (Glioblastoma) = assay type: cell-based
Procedure: as §1

HuTu80 (Stomach) = assay type: cell-based, human
Procedure: as §1

HBL 100 (Breast) = assay type: cell-based, human
Procedure: as §1

SW620 (colon) = assay type: cell-based, human
Procedure: as §1

KB (oral squamous) = assay type: cell-based, human
Procedure: as §1

PTC (colon) = assay type: cell-based, human
Procedure: as §1

Compound: CC(C)C[C@H](NC(=O)[C@H](Cc1c[nH]cn1)NC(=O)C1(NC(=O)[C@@H](NC(=O)[C@H](C)NC(=O)[C@H](Cc2c[nH]c3ccccc23)NC(=O)[C@H](CCC(N)=O)NC(=O)[C@H](N)Cc2ccccc2)C(C)C)CCCC1)C(N)=O [SEQ ID: 10, D-Phe-Gln-Trp-Ala-Val-Ac5c-His-Leu-NH2] (H-[dF]QWAV[Ac5c]HL-NH2; N-terminus assumed)
- Percentage cytotoxicity (L132 (Lung); L132, 10 pM): 1.9 ± 0.2%
- Percentage cytotoxicity (L132 (Lung); L132, 100 pM): 29.4 ± 1.9%
- Percentage cytotoxicity (L132 (Lung); L132, 1 nM): 29.5 ± 2.8%
- Percentage cytotoxicity (L132 (Lung); L132, 10 nM): 27.5 ± 2.8%
- Percentage cytotoxicity (L132 (Lung); L132, 100 nM): 27.8 ± 2.1%
- Percentage cytotoxicity (L132 (Lung); L132, 1 μM): 22.4 ± 1.8%
- Percentage cytotoxicity (HeP2 (laryngeal); HeP2, 10 pM): 1.7 ± 0.1%
- Percentage cytotoxicity (HeP2 (laryngeal); HeP2, 100 pM): 19.1 ± 0.6%
- Percentage cytotoxicity (HeP2 (laryngeal); HeP2, 1 nM): 27.2 ± 2.6%
- Percentage cytotoxicity (HeP2 (laryngeal); HeP2, 10 nM): 27.5 ± 2.8%
- Percentage cytotoxicity (HeP2 (laryngeal); HeP2, 100 nM): 26.3 ± 1.7%
- Percentage cytotoxicity (HeP2 (laryngeal); HeP2, 1 μM): 19.9 ± 1.5%
- Percentage cytotoxicity (U87MG (Glioblastoma); 10 pM): 11.6 ± 1.7%
- Percentage cytotoxicity (U87MG (Glioblastoma); 100 pM): 16.5 ± 0.5%
- Percentage cytotoxicity (U87MG (Glioblastoma); 1 nM): 25.6 ± 2.1%
- Percentage cytotoxicity (U87MG (Glioblastoma); 10 nM): 20.0 ± 0.0%
- Percentage cytotoxicity (U87MG (Glioblastoma); 100 nM): 15.0 ± 0.5%
- Percentage cytotoxicity (U87MG (Glioblastoma); 1 μM): 10.0 ± 0.0%
- Percentage cytotoxicity (HuTu80 (Stomach); HuTu80, 10 pM): 13.5 ± 0.8%
- Percentage cytotoxicity (HuTu80 (Stomach); HuTu80, 100 pM): 22.9 ± 0.2%
- Percentage cytotoxicity (HuTu80 (Stomach); HuTu80, 1 nM): 23.3 ± 2.8%
- Percentage cytotoxicity (HuTu80 (Stomach); HuTu80, 10 nM): 20.6 ± 1.7%
- Percentage cytotoxicity (HuTu80 (Stomach); HuTu80, 100 nM): 21.0 ± 2.0%
- Percentage cytotoxicity (HuTu80 (Stomach); HuTu80, 1 μM): 17.2 ± 1.1%
- Percentage cytotoxicity (HBL 100 (Breast); HBL100, 10 pM): 21.1 ± 0.7%
- Percentage cytotoxicity (HBL 100 (Breast); HBL100, 100 pM): 16.6 ± 0.1%
- Percentage cytotoxicity (HBL 100 (Breast); HBL100, 1 nM): 23.3 ± 1.6%
- Percentage cytotoxicity (HBL 100 (Breast); HBL100, 10 nM): 32.9 ± 0.7%
- Percentage cytotoxicity (HBL 100 (Breast); HBL100, 100 nM): 21.2 ± 1.7%
- Percentage cytotoxicity (HBL 100 (Breast); HBL100, 1 μM): 18.5 ± 1.7%
- Percentage cytotoxicity (SW620 (colon); SW620, 10 pM): 16.7 ± 0.2%
- Percentage cytotoxicity (SW620 (colon); SW620, 100 pM): 20.9 ± 0.6%
- Percentage cytotoxicity (SW620 (colon); SW620, 1 nM): 22.4 ± 1.7%
- Percentage cytotoxicity (SW620 (colon); SW620, 10 nM): 25.5 ± 2.8%
- Percentage cytotoxicity (SW620 (colon); SW620, 100 nM): 19.4 ± 1.8%
- Percentage cytotoxicity (SW620 (colon); SW620, 1 μM): 22.2 ± 2.1%
- Percentage cytotoxicity (KB (oral squamous); 10 pM): 19.2 ± 2.9%
- Percentage cytotoxicity (KB (oral squamous); 100 pM): 25.0 ± 6.3%
- Percentage cytotoxicity (KB (oral squamous); 1 nM): 31.1 ± 4.1%
- Percentage cytotoxicity (KB (oral squamous); 10 nM): 27.3 ± 2.7%
- Percentage cytotoxicity (KB (oral squamous); 100 nM): 22.0 ± 1.1%
- Percentage cytotoxicity (KB (oral squamous); 1 μM): 16.5 ± 0.2%
- Percentage cytotoxicity (PTC (colon); 10 pM): 22.2 ± 4.9%
- Percentage cytotoxicity (PTC (colon); 100 pM): 21.6 ± 3.1%
- Percentage cytotoxicity (PTC (colon); 1 nM): 29.4 ± 2.9%
- Percentage cytotoxicity (PTC (colon); 10 nM): 32.5 ± 5.1%
- Percentage cytotoxicity (PTC (colon); 100 nM): 29.3 ± 3.2%
- Percentage cytotoxicity (PTC (colon); 1 μM): 28.4 ± 3.6%

Compound: CCC(CC)(NC(=O)[C@H](Cc1c[nH]c2ccccc12)NC(=O)[C@H](CCC(N)=O)NC(=O)[C@H](N)Cc1ccccc1)C(=O)N[C@H](C(=O)NCC(=O)N[C@@H](Cc1c[nH]cn1)C(=O)N[C@@H](CC(C)C)C(N)=O)C(C)C [SEQ ID: 9, D-Phe-Gln-Trp-Deg-Val-Gly-His-Leu-NH2] (H-[dF]QW[Deg]VGHL-NH2; N-terminus assumed)
- Percentage cytotoxicity (L132 (Lung); L132, 10 pM): 0.0 ± 0.0%
- Percentage cytotoxicity (L132 (Lung); L132, 100 pM): 22.4 ± 0.8%
- Percentage cytotoxicity (L132 (Lung); L132, 1 nM): 30.5 ± 4.1%
- Percentage cytotoxicity (L132 (Lung); L132, 10 nM): 27.2 ± 3.1%
- Percentage cytotoxicity (L132 (Lung); L132, 100 nM): 25.9 ± 2.6%
- Percentage cytotoxicity (L132 (Lung); L132, 1 μM): 18.3 ± 2.9%
- Percentage cytotoxicity (HeP2 (laryngeal); HeP2, 10 pM): 0.0 ± 0.0%
- Percentage cytotoxicity (HeP2 (laryngeal); HeP2, 100 pM): 14.6 ± 0.6%
- Percentage cytotoxicity (HeP2 (laryngeal); HeP2, 1 nM): 21.3 ± 2.2%
- Percentage cytotoxicity (HeP2 (laryngeal); HeP2, 10 nM): 28.5 ± 3.1%
- Percentage cytotoxicity (HeP2 (laryngeal); HeP2, 100 nM): 17.8 ± 0.3%
- Percentage cytotoxicity (HeP2 (laryngeal); HeP2, 1 μM): 21.6 ± 1.8%
- Percentage cytotoxicity (U87MG (Glioblastoma); 10 pM): 0.0 ± 0.0%
- Percentage cytotoxicity (U87MG (Glioblastoma); 100 pM): 11.9 ± 4.1%
- Percentage cytotoxicity (U87MG (Glioblastoma); 1 nM): 21.8 ± 0.1%
- Percentage cytotoxicity (U87MG (Glioblastoma); 10 nM): 20.0 ± 0.0%
- Percentage cytotoxicity (U87MG (Glioblastoma); 100 nM): 21.4 ± 0.1%
- Percentage cytotoxicity (U87MG (Glioblastoma); 1 μM): 10.0 ± 0.0%
- Percentage cytotoxicity (HuTu80 (Stomach); HuTu80, 10 pM): 19.5 ± 0.4%
- Percentage cytotoxicity (HuTu80 (Stomach); HuTu80, 100 pM): 23.8 ± 2.8%
- Percentage cytotoxicity (HuTu80 (Stomach); HuTu80, 1 nM): 28.0 ± 1.8%
- Percentage cytotoxicity (HuTu80 (Stomach); HuTu80, 10 nM): 23.5 ± 2.9%
- Percentage cytotoxicity (HuTu80 (Stomach); HuTu80, 100 nM): 13.5 ± 2.1%
- Percentage cytotoxicity (HuTu80 (Stomach); HuTu80, 1 μM): 14.2 ± 0.6%
- Percentage cytotoxicity (HBL 100 (Breast); HBL100, 10 pM): 17.2 ± 0.1%
- Percentage cytotoxicity (HBL 100 (Breast); HBL100, 100 pM): 28.6 ± 2.2%
- Percentage cytotoxicity (HBL 100 (Breast); HBL100, 1 nM): 34.1 ± 1.8%
- Percentage cytotoxicity (HBL 100 (Breast); HBL100, 10 nM): 28.1 ± 0.6%
- Percentage cytotoxicity (HBL 100 (Breast); HBL100, 100 nM): 22.4 ± 1.7%
- Percentage cytotoxicity (HBL 100 (Breast); HBL100, 1 μM): 17.2 ± 0.4%
- Percentage cytotoxicity (SW620 (colon); SW620, 10 pM): 15.1 ± 0.3%
- Percentage cytotoxicity (SW620 (colon); SW620, 100 pM): 28.9 ± 0.2%
- Percentage cytotoxicity (SW620 (colon); SW620, 1 nM): 30.8 ± 0.6%
- Percentage cytotoxicity (SW620 (colon); SW620, 10 nM): 33.2 ± 2.9%
- Percentage cytotoxicity (SW620 (colon); SW620, 100 nM): 25.8 ± 2.8%
- Percentage cytotoxicity (SW620 (colon); SW620, 1 μM): 21.6 ± 2.1%
- Percentage cytotoxicity (KB (oral squamous); 10 pM): 20.6 ± 4.1%
- Percentage cytotoxicity (KB (oral squamous); 100 pM): 26.9 ± 2.9%
- Percentage cytotoxicity (KB (oral squamous); 1 nM): 32.6 ± 3.7%
- Percentage cytotoxicity (KB (oral squamous); 10 nM): 23.0 ± 2.1%
- Percentage cytotoxicity (KB (oral squamous); 100 nM): 20.8 ± 1.7%
- Percentage cytotoxicity (KB (oral squamous); 1 μM): 10.4 ± 1.6%
- Percentage cytotoxicity (PTC (colon); 10 pM): 22.4 ± 2.2%
- Percentage cytotoxicity (PTC (colon); 100 pM): 24.5 ± 3.9%
- Percentage cytotoxicity (PTC (colon); 1 nM): 25.6 ± 5.1%
- Percentage cytotoxicity (PTC (colon); 10 nM): 26.8 ± 3.8%
- Percentage cytotoxicity (PTC (colon); 100 nM): 19.5 ± 4.1%
- Percentage cytotoxicity (PTC (colon); 1 μM): 10.3 ± 0.9%
